Test results: US8293802B2, “Gentle-acting skin-disinfectants and hydroalcoholic gel formulations” (The Trustees of Columbia University, priority 2001, dated 2012)
Where two headings read alike, the source gives them in different places.

Assays:
S. aureus = assay: Rapid antimicrobial activity: test gel/base mixed with culture and bovine adult serum, 15 seconds, colony count; assay type: cell-based, Staphylococcus aureus; conditions: for Growth (CFU/ml) / S. aureus (cfu/tube): control 1 × 10^8; for Growth (cfu/tube): Table 7, control (without gel base) 2.5-4.2 × 10^8; for antimicrobial activity against S. aureus (in words): Tables 1 and 2
Experimental: Antimicrobial activity was evaluated using the following assay. 1 milliliter of 10^8 colony-forming units (“cfus”) of test organism per milliliter was added to 1 milliliter of bovine adult serum in a sterile culture tube and mixed. 1 milliliter of the test gel was added to each tube, and was vortexed to mix. After 15 seconds, three 0.5 ml aliquots were removed and further diluted 1:1000 with LTSB (lecithin-containing trypticase soy broth) drug-inactivating medium, and, of the resulting liquid, 0.5 milliliters were plated on each trypticase soy agar (“TSA”) plate. The resulting plates were incubated at 37° C. for 24 hours and the colony count per tube was determined.

[1] = at 22° C.; cited from earlier work
[2] = Table 5, alcohol gel base, 15 seconds
[3] = Table 3, alcohol gel base, 15 seconds
[4] = Table 10, aqueous base of Example 8, 15 seconds, aqueous base control 5.0 × 10^8
[5] = Table 1, alcohol gel base of Example 1, 15 seconds, bovine adult serum
[6] = Table 1, alcohol gel base, 15 seconds
[7] = Table 2, alcohol gel base, 15 seconds

Compound: Oc1cc(Cl)ccc1Oc1ccc(Cl)cc1Cl [0.3% TC, triclosan]
- fold reduction relative to control (S. aureus; [2]): 0 fold
- Growth (CFU/ml) (S. aureus; [2]): 1.0 × 10^8 CFU/ml

Compound: N=C(NCCCCCCNC(=N)NC(=N)Nc1ccc(Cl)cc1)NC(=N)Nc1ccc(Cl)cc1.O=C(O)[C@H](O)[C@@H](O)[C@H](O)[C@H](O)CO.O=C(O)[C@H](O)[C@@H](O)[C@H](O)[C@H](O)CO [0.05% CHG, chlorhexidine digluconate]
- Log 10 cfu reduction relative to control (S. aureus; [3]): 1.0 log 10
- fold reduction relative to control (S. aureus; [3]): 9 fold
- S. aureus (cfu/tube) (S. aureus; [3]): 1.1 × 10^7 cfu/tube
- fold reduction relative to control (S. aureus; [2]): 9 fold
- Growth (CFU/ml) (S. aureus; [2]): 1.1 × 10^7 CFU/ml
- Growth (cfu/tube) (S. aureus; alcohol gel base, 15 seconds): 1.1 × 10^7 cfu/tube
- Staphylococcus aureus (CFU/tube) (S. aureus; [4]): 2.5 × 10^8 CFU/tube

Compound: N=C(NCCCCCCNC(=N)NC(=N)Nc1ccc(Cl)cc1)NC(=N)Nc1ccc(Cl)cc1.O=C(O)[C@H](O)[C@@H](O)[C@H](O)[C@H](O)CO.O=C(O)[C@H](O)[C@@H](O)[C@H](O)[C@H](O)CO [0.5% CHG, chlorhexidine digluconate]
- Log 10 cfu reduction relative to control (S. aureus; [3]): 1.4 log 10
- fold reduction relative to control (S. aureus; [3]): 23.8 fold
- S. aureus (cfu/tube) (S. aureus; [3]): 4.2 × 10^6 cfu/tube

Compound: CCCCC(CC)COCC(O)CO (stereo not drawn) [0.5% Sensiva, glycerol 1-(2-ethylhexyl)ether]
- S. aureus (cfu/tube) (S. aureus; [5]): 1 × 10^7 cfu/tube
- fold-reduction relative to control (S. aureus; [6]): 2.5 fold
- Growth (cfu/tube) (S. aureus; alcohol gel base, 15 seconds): 4.0 × 10^7 cfu/tube

Compound: CC(C)(C)CC(C)(C)c1ccc(OCCOCC[N+](C)(C)Cc2ccccc2)cc1 [0.12% BZT, benzethonium chloride]
- fold reduction relative to control (S. aureus; [2]): 10 fold
- Growth (CFU/ml) (S. aureus; [2]): 1.0 × 10^7 CFU/ml

Compound: N=C(NCCCCCCNC(=N)NC(=N)Nc1ccc(Cl)cc1)NC(=N)Nc1ccc(Cl)cc1.O=C(O)[C@H](O)[C@@H](O)[C@H](O)[C@H](O)CO.O=C(O)[C@H](O)[C@@H](O)[C@H](O)[C@H](O)CO [0.25% CHG, chlorhexidine digluconate]
- Log 10 cfu reduction relative to control (S. aureus; [3]): 1.1 log 10
- fold reduction relative to control (S. aureus; [3]): 12.5 fold
- S. aureus (cfu/tube) (S. aureus; [3]): 8 × 10^6 cfu/tube

Compound: Clc1ccc(COC(Cn2ccnc2)c2ccc(Cl)cc2Cl)c(Cl)c1 (stereo not drawn) [1.0% Miconazole, miconazole]
- fold reduction relative to control (S. aureus; [2]): 0 fold
- Growth (CFU/ml) (S. aureus; [2]): 1.0 × 10^8 CFU/ml

Compound: CCCCC(CC)COCC(O)CO (stereo not drawn) [1.0% Sensiva, glycerol 1-(2-ethylhexyl)ether]
- S. aureus (cfu/tube) (S. aureus; [5]): 4 × 10^7 cfu/tube
- fold-reduction relative to control (S. aureus; [6]): 9 fold
- Log 10 cfu reduction relative to control (S. aureus; [7]): 1 log 10
- fold reduction relative to control (S. aureus; [7]): 10 fold
- S. aureus (cfu/tube) (S. aureus; [7]): 4 × 10^7 cfu/tube
- Growth (cfu/tube) (S. aureus; alcohol gel base, 15 seconds): 1.0 × 10^7 cfu/tube
- Staphylococcus aureus (CFU/tube) (S. aureus; [4]): 5.0 × 10^8 CFU/tube

Compound: CCCCC(CC)COCC(O)CO (stereo not drawn) [2.0% Sensiva, glycerol 1-(2-ethylhexyl)ether]
- S. aureus (cfu/tube) (S. aureus; [5]): 3 × 10^6 cfu/tube
- fold-reduction relative to control (S. aureus; [6]): 33 fold
- Log 10 cfu reduction relative to control (S. aureus; [7]): 1.5 log 10
- fold reduction relative to control (S. aureus; [7]): 33 fold
- S. aureus (cfu/tube) (S. aureus; [7]): 3 × 10^6 cfu/tube
- fold reduction relative to control (S. aureus; [2]): 33 fold
- Growth (CFU/ml) (S. aureus; [2]): 3 × 10^6 CFU/ml
- Fold Reduction Compared to Control (S. aureus; Table 6, alcohol gel base, 15 seconds): 33 fold
- Growth (CFU/ML) (S. aureus; Table 6, alcohol gel base, 15 seconds, control 1.0 × 10^8): 3.0 × 10^6 CFU/ML

Compound: CCCCC(CC)COCC(O)CO (stereo not drawn) [3.0% Sensiva, glycerol 1-(2-ethylhexyl)ether]
- S. aureus (cfu/tube) (S. aureus; [5]): 1 × 10^6 cfu/tube
- fold-reduction relative to control (S. aureus; [6]): 100 fold

Compound: CCCCC(CC)COCC(O)CO (stereo not drawn) [5.0% Sensiva, glycerol 1-(2-ethylhexyl)ether]
- S. aureus (cfu/tube) (S. aureus; [5]): 1 × 10^6 cfu/tube
- fold-reduction relative to control (S. aureus; [6]): 100 fold

Compound: CCCCC(CC)COCC(O)CO (stereo not drawn) [Sensiva SC 50, glycerol 1-(2-ethylhexyl)ether]
- water solubility [1]: approximately 1.8 g/l

Compound: benzalkonium chloride [0.5% BZK]
- Log 10 cfu reduction relative to control (S. aureus; [7]): 1.4 log 10
- fold reduction relative to control (S. aureus; [7]): 27 fold
- S. aureus (cfu/tube) (S. aureus; [7]): 3.7 × 10^6 cfu/tube

Compound: benzalkonium chloride [0.12% BZK]
- Log 10 cfu reduction relative to control (S. aureus; [7]): 0.8 log 10
- fold reduction relative to control (S. aureus; [7]): 6.25 fold
- S. aureus (cfu/tube) (S. aureus; [7]): 1.6 × 10^7 cfu/tube
- fold reduction relative to control (S. aureus; [2]): 6.25 fold
- Growth (CFU/ml) (S. aureus; [2]): 1.6 × 10^7 CFU/ml
- Growth (cfu/tube) (S. aureus; alcohol gel base, 15 seconds): 1.6 × 10^7 cfu/tube
- Staphylococcus aureus (CFU/tube) (S. aureus; [4]): 2.0 × 10^8 CFU/tube
- antimicrobial activity against S. aureus (in words) (S. aureus; alcohol gel base): minimal or no antimicrobial activity

Compound: benzalkonium chloride [0.019% BZK]
- Growth (cfu/tube) (S. aureus; alcohol gel base, 15 seconds): 8.0 × 10^7 cfu/tube

Compound: benzalkonium chloride [0.19% BZK]
- Log 10 cfu reduction relative to control (S. aureus; [7]): 0.7 log 10
- fold reduction relative to control (S. aureus; [7]): 5 fold
- S. aureus (cfu/tube) (S. aureus; [7]): 2 × 10^7 cfu/tube
- antimicrobial activity against S. aureus (in words) (S. aureus; alcohol gel base): minimal or no antimicrobial activity

Compound: neomycin [0.3% Neomycin]
- fold reduction relative to control (S. aureus; [2]): 4.3 fold
- Growth (CFU/ml) (S. aureus; [2]): 2.3 × 10^7 CFU/ml

Compound: polyhexamethylene biguanide [0.3% PHMB]
- Staphylococcus aureus (CFU/tube) (S. aureus): 1.0 × 10^7 CFU/tube
- fold reduction relative to control (S. aureus; [2]): 33 fold
- Growth (CFU/ml) (S. aureus; [2]): 3.0 × 10^6 CFU/ml

Compound: povidone iodine [1.0% PVI]
- fold reduction relative to control (S. aureus; [2]): 5 fold
- Growth (CFU/ml) (S. aureus; [2]): 2.0 × 10^7 CFU/ml
